From patent US6211439A, “Herbicide resistance in plants” (MGI Pharma, Inc, priority 1995, dated 2001)
≈ marks a conversion by molar mass, not a printed value. Where two headings read alike, the source gives them in different places.

Legend:
[1] = system: unselected maize callus tissue; assay: Callus culture growth inhibition, unselected tissue; type: cell-based; conditions: Zea mays, 336 h, read-out: level giving a 50% growth inhibition
Experimental: (§1) Therefore the effects of 214 were determined on callus growth. Quantities of tissue averaging 90 mg in size were transferred to nutrient agar maintenance media containing concentrations of 214 ranging from 0.003 to 3 mg per liter. Eight tissue pieces were placed on each plate with three plates per herbicide concentration. After 14 days growth, the tissue was weighed again.

[2] = system: XA17 seedlings homozygous for the herbicide resistance trait; assay: Seedling assay, XA17 seedlings homozygous for the resistance trait; type: in vivo, maize; conditions: for resistance of XA17 homozygous seedlings: vs control seedlings
Experimental: (§2) Twenty control seeds and ten XA17 seeds were surface sterilized with 2.6% sodium hypochlorite for twenty minutes and then washed with sterile distilled water. The seed was imbibed overnight in sterile water containing a small quantity of the fungicide, captan (N-trichloromethylthio-4-cyclohexene-1,2-dicarboximide). The mature embryos were then excised from the seed and plated scutellum side down on solid MS media without 2,4-D. Ten control seeds were plated on media containing no 214 and ten were plated in the presence of 6×10^-8M 214 which had been incorporated into the medium after autoclaving but before gelling. All ten XA17 seeds were plated in the presence of 6×10^-8 M 214. Seedlings were evaluated seven days after plating.
(§3) XA17 seeds homozygous for the resistance trait were obtained as described in Section 6.4.6. […] Assays were conducted as described in Section 6.4.5.

control seedlings = assay: Seedling assay, control (herbicide sensitive) seedlings; type: in vivo, maize; conditions: Zea mays, read-out: concentration inhibiting shoot growth 50%
Source text: Seeds to be used as controls in the heritability assay were obtained from regenerated plants from an herbicide sensitive cell line of the same genetic background as line XA17. These regenerated plants were crossed with pollen obtained from a herbicide sensitive inbred B73 plant grown from seed. Seeds were harvested approximately forty days after pollination.
as §2, §3

QJ22 seedlings = assay: Seedling assay, QJ22 seedlings homozygous for the resistance trait; type: in vivo, maize; conditions: seedling assays
Source text: Plants were regenerated from cell line QJ22 and seed obtained as described previously for XA17, supra. […] Seeds which are uniformly homozygous for the resistance trait were obtained as described for XA17, supra.

line XA17 tissue = assay: Callus growth inhibition, resistant line XA17; type: cell-based, maize; conditions: Zea mays, 336 h, read-out: level giving a 50% growth inhibition
Experimental: as §1
Initially, the maximum level of 214 in which line XA17 would grow stably was determined. Stock tissue which had been maintained in the presence of 0.1 mg per liter 214 was transferred to media containing 214 levels ranging up to 30 mg per liter. Tissue was maintained for several subculture intervals and the growth rate evaluated.

[3] = system: AHAS activity of line XA17 tissue; assay: AHAS activity assay, line XA17 tissue; type: biochemical, maize; conditions: for IC50: AHAS activity of line XA17 tissue, read-out: concentration inhibiting AHAS activity 50%
Experimental: (§4) Assays were conducted as a modification of the procedure of Smith et al. (1979, Molec. Gen. Genet. 169: 299-314). Plant cell culture material was ground with sand in a cold mortar and pestle in an equal quantity (w/v) of cell disruption media containing 0.05 M potassium phosphate (pH 7.0), 0.1 mM MgSO4, and 0.5 mM dithiothreitol. The preparation was centrifuged at 11,000×g for 20 minutes and the supernatant assayed for AHAS activity. Assays were conducted in 1 ml volumes containing 0.05 M potassium phosphate (pH 8.0), 40 mM pyruvate, 5 mM MgCl2, 0.1 mM thiamine pyrophosphate, 0.2 ml cell extract, and various concentrations of the herbicide of interest. The reaction mixtures were incubated at 30° C. for 75 minutes and the reaction terminated with the addition of 0.1 ml of 50% (v/v) H2 SO4. Following further incubation at 40° C. for 20 minutes, the acetoin formed from acetolactate by acidification was quantitated using the method of Westerfield (1945, J. Biol. Chem. 161: 495). To 0.2 ml of reaction mixture, 0.8 ml of water, 0.5 ml of 0.5% (w/v) creatine, and 0.5 ml of 5% (w/v) naphthol in 10% (w/v) NaOH was added. After mixing, solutions were incubated at room temperature for one hour. The development of pink color was quantitated by measuring light absorbance at 530 nm.
Assays were conducted to determine if acetohydroxyacid synthase extracted from line XA17 tissue was altered with respect to herbicide sensitivity. Such a change would signify that an alteration of this enzyme conferred the herbicide resistance. Assays were conducted as described supra.

[4] = system: acetohydroxyacid synthase (AHAS); assay: AHAS activity assay, extract of maize cell cultures / control tissue; type: biochemical
Experimental: as §4, with “Plant” for “Assays were conducted as a modification of the procedure of Smith et al. (1979, Molec. Gen. Genet. 169: 299-314). Plant”, “Following further incubation at 40° C. for 20 minutes, the acetoin formed from acetolactate by acidification was quantitated using the method of Westerfield (1945, J. Biol. Chem. 161: 495).” left out, “hour.” for “hour. The development of pink color was quantitated by measuring light absorbance at 530 nm.”

[5] = system: Callus tissue from line QJ22; assay: Callus growth inhibition, line QJ22; type: cell-based, maize; conditions: line QJ22 vs control tissue; based on herbicide amount giving 50% reduction in growth rate
Experimental: (§5) Callus tissue from line QJ22 was tested also with the compound 567. The numbers represent the fold increase in herbicide concentration that can be tolerated by each of the cell lines as compared to control tissue. The values were calculated based on the amount of herbicide that gave a 50% reduction in growth rate.

[6] = system: maize cell suspension cultures; assay: Reversal of herbicide growth inhibition by leucine, valine and isoleucine; type: cell-based; conditions: 1 mM each of leucine, isoleucine, and valine; cell suspension cultures
Experimental: Growth inhibition studies were carried out in 125 ml flasks containing 30 ml of test media. 997 was filter sterilized and added to cooling media following autoclaving. Test media were innoculated with cells to give a settled cell volume (15 minutes without centrifugation) of 0.2 ml per 10 ml of suspension. After either six or seven days growth settled cell volumes were again quantitated.
Cells were tested to determine whether the herbicide induced inhibition of growth was the result of the decreased availability of the three branched chain amino acids. Cells were exposed to toxic levels of 997 (1×10^-6 M) in media either supplemented with 1 mM concentrations of leucine, valine, and isoleucine or with no supplementation. Culture growth rates in the absence of amino acid supplementation and in the presence of 1×10^-6 M 997 were reduced to 16% that of herbicide free cultures.
Experiments were conducted to determine the optimum supplementation levels of each of the three amino acids to obtain maximum herbicide protection and for gaining insight into the site of action of the compound.

[7] = system: Callus tissue from line UV18; assay: Callus growth inhibition, line UV18; type: cell-based, maize; conditions: line UV18 vs control tissue; based on herbicide amount giving 50% reduction in growth rate
Experimental: The UV18 cell line was first observed after 25 weeks of selection comprising 9 subculture intervals. The tissue in the selection procedure had been exposed to 0.1 mg per liter 214 for four subculture intervals followed by exposure to 0.3 mg per liter 214 for four subculture intervals. UV18 was identified during the ninth subculture as a rapidly growing sector of tissue with good morphology.
as §5

Tomato callus lines = conditions: callus cultures initiated from regenerated plants (Thomas and Pratt, 1983); cited from earlier work

Structure (SMILES) | IC50 [1] [µg/mL] | IC50 ([2]; Zea mays, read-out: concentration inhibiting shoot growth 50%) [µM] | resistance of XA17 homozygous seedlings [2] | IC50 (control seedlings) [µM] | tolerance of QJ22 homozygous seedlings compared to control seedlings (QJ22 seedlings) | IC50 (line XA17 tissue) [µg/mL] | IC50 [3] [µM] | effect on AHAS enzyme activity ([4]; AHAS activity from maize cell cultures) | IC50 ([4]; AHAS activity of control tissue, read-out: concentration inhibiting AHAS activity 50%) [µM] | Callus Growth Fold Increase in Tolerance [5] | effect of media supplementation with leucine, isoleucine, valine on growth inhibition [6] | Callus Growth Fold Increase in Tolerance [7] [fold] | change in herbicide sensitivity of AHAS, line XA17 vs control, on a concentration basis ([3]; maize, ahas, line xa17) [fold] | shoot growth inhibition at the highest concentration tested ([2]; 3×10^-6 M, seedlings homozygous for the resistance trait) | IC50 (control seedlings; control seedlings) [µM] | IC50 (line XA17 tissue; line XA17, two week growth inhibition study) [µg/mL] | increase over wild-type in resistance (Tomato callus lines) [fold]
COc1nc(C)nc(NC(=O)NS(=O)(=O)c2ccccc2Cl)n1 [chlorsulfuron, 2-chloro-N-[(4-methoxy-6-methyl-1,3,5-triazin-2-yl)aminocarbonyl]benzenesulfonamide] | 0.01 (≈ 0.028 µM) | 0.1 | 10 fold | 0.01 | no tolerance | 10 (≈ 28 µM) | 0.3 |  |  |  |  |  |  |  |  |  | 
CCc1cnc(C2=NC(=O)C(C)(C(C)C)N2)c(C(=O)O)c1 (stereo not drawn) [compound 499, 5-ethyl,2-(5-isopropyl-5-methyl-4-oxo-2-imidazolin-2-yl)nicotinic acid] | 0.1 to 0.3 (≈ 0.346 to 1.04 µM) |  |  |  | 30 fold | > 30 | 3000 to 30000 | inhibited the enzyme activity | 1 to 10 | 30-50 fold | reversed the growth inhibitory effects | 100 | ≥ 1000 |  |  |  | 
Cc1cc(C)n2nc(S(=O)(=O)Nc3c(Cl)cccc3Cl)nc2n1 [compound 567, 5,7-dimethyl-N-(2,6-dichlorophenyl)-1,2,4-triazolo[1,5-a)pyrimidine-2-sulfonamide] | 0.1 to 0.3 (≈ 0.269 to 0.806 µM) |  | at least 30 fold |  | no tolerance |  |  |  |  |  |  |  |  | no inhibition | 0.1 | > 30 | 
C[n+]1ccc(-c2cc[n+](C)cc2)cc1 [paraquat] |  |  |  |  |  |  |  |  |  |  |  |  |  |  |  |  | ≥ 30
